Like-named read-outs stand apart in the source and are kept apart here.
Tests used:
[1] = archetypal comparison complex; cited from earlier work
[2] = set-up: method as in earlier work; conditions: reference for 1O2 sensitization; ref 4 (SI), Tanielian et al., 1996; cited from earlier work
NDM-1 [3] = target: T1, NDM-1 (Klebsiella pneumoniae, UniProt C7C422); conditions: read-out: Km(Nitrocefin); NDM-1 2 nM, 25 °C
From the text: (4 pictures or pasted objects on this page, not shown here)

NDM-1 [4] = target: T1, NDM-1; conditions: read-out: Km(Nitrocefin); previously reported; ref 5 (SI); cited from earlier work

T1 sequence (C7C422 31-270 limits assumed): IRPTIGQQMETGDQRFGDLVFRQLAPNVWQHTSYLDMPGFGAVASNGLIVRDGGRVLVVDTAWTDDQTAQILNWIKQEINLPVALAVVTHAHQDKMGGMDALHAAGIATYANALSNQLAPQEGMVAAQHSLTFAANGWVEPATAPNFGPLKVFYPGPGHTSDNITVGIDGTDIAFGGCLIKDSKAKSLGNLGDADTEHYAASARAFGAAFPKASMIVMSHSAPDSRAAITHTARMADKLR

Row | Structure (SMILES) | Luminescence lifetime of excited state [1] [ns] | 1O2 quantum yield (ΦΔ) [2] | Km (NDM-1 [3]) [µM] | Km (NDM-1 [4]) [µM]
1 | [Cl][Ru][Cl].c1ccc(-c2ccccn2)nc1.c1ccc(-c2ccccn2)nc1.c1ccc(-c2ccccn2)nc1 [[Ru(bpy)3]Cl2, tris(2,2’-bipyridyl)ruthenium(II) dichloride] | 510 | 0.87 | – | –
2 | O=C(Cc1cccs1)N[C@@H]1C(=O)N2C(C(=O)O)=C(/C=C/c3ccc([N+](=O)[O-])cc3[N+](=O)[O-])CS[C@H]12 [nitrocefin] | – | – | 3.1 ± 0.5 | 3.2

Reference: paper PMC12703741, “Light-Activated Metal-Dependent Protein Degradation: A Heterobifunctional Ruthenium(II) Photosensitizer Targeting New Delhi Metallo-β-lactamase 1” (Journal of the American Chemical Society, 2025)
